Results from PubChem BioAssay AID330 (DTP/NCI, 2004).
Inconclusive results and toxic doses are left out. Rule for the calls: active = survival T/C of 150% or more; inactive = T/C below 125% in these data.

System: P388 leukemia ip, CD2F1 mice, survival T/C
Test: NCI In Vivo Anticancer Drug Screen. Data for tumor model P388 Leukemia (intraperitoneal) in CD2F1 (CDF1) mice
Conditions: endpoint: median survival time, higher = longer survival
Summary of the method: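 Mice carrying the transplanted tumor received test compound or vehicle. Survival was recorded in each group, and the value is the treated-group measurement divided by that of the vehicle-treated control group.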

[1] = dose: 50.0 mg/kg/injection, schedule: Q01DX005 (ip), vehicle: saline with Tween-80
[2] = dose: 100.0 mg/kg/injection, schedule: Q01DX005 (ip), vehicle: saline with Tween-80
[3] = dose: 200.0 mg/kg/injection, schedule: Q01DX005 (ip), vehicle: saline with Tween-80
[4] = dose: 50.0 mg/kg/injection, schedule: Q01DX009 (ip), vehicle: Klucel (hydroxypropylcellulose) (HPC)
[5] = dose: 100.0 mg/kg/injection, schedule: Q01DX009 (ip), vehicle: Klucel (hydroxypropylcellulose) (HPC)
[6] = dose: 200.0 mg/kg/injection, schedule: Q01DX009 (ip), vehicle: Klucel (hydroxypropylcellulose) (HPC)
[7] = dose: 60.0 mg/kg/injection, schedule: Q01DX005 (ip), vehicle: saline with Tween-80
[8] = dose: 120.0 mg/kg/injection, schedule: Q01DX005 (ip), vehicle: saline with Tween-80
[9] = dose: 100.0 mg/kg/injection, schedule: Q01DX009 (ip), vehicle: other
[10] = dose: 200.0 mg/kg/injection, schedule: Q01DX009 (ip), vehicle: other
[11] = dose: 3.13 mg/kg/injection, schedule: Q01DX009 (ip), vehicle: saline
[12] = dose: 6.25 mg/kg/injection, schedule: Q01DX009 (ip), vehicle: saline

Measured: T/C

ClC(Cl)=C(Cl)Sc1ccccc1
inactive: [1] 105 % of control | [2] 105 % of control | [3] 107 % of control

CCOC(=O)c1ccc(NC(=S)P(=O)(c2ccccc2)c2ccccc2)cc1
inactive: [4] 88 % of control | [5] 89 % of control | [6] 94 % of control

Sc1cn2ccccc2n1
inactive: dose: 50.0 mg/kg/injection, schedule: Q04DX003 (ip), vehicle: saline 105 % of control | dose: 100.0 mg/kg/injection, schedule: Q04DX003 (ip), vehicle: saline 97 % of control | dose: 200.0 mg/kg/injection, schedule: Q04DX003 (ip), vehicle: saline 103 % of control

CNC(=O)Nc1nnnc2ccccc12
inactive: dose: 25.0 mg/kg/injection, schedule: Q04DX003 (ip), vehicle: saline with Tween-80 90 % of control | dose: 50.0 mg/kg/injection, schedule: Q04DX003 (ip), vehicle: saline with Tween-80 100 % of control | dose: 100.0 mg/kg/injection, schedule: Q04DX003 (ip), vehicle: saline with Tween-80 100 % of control

Nc1nccc(C(=O)c2ccccc2O)n1
inactive: dose: 50.0 mg/kg/injection, schedule: Q01DX009 (ip), vehicle: saline 98 % of control | dose: 100.0 mg/kg/injection, schedule: Q01DX009 (ip), vehicle: saline 95 % of control | dose: 200.0 mg/kg/injection, schedule: Q01DX009 (ip), vehicle: saline 99 % of control

CNC1C(O)C(OC2C(N)CC(N)C(OC3OC(C(C)O)C(O)C(O)C3N)C2O)OCC1(C)O (stereo not drawn)
inactive: dose: 7.5 mg/kg/injection, schedule: Q01DX005 (ip), vehicle: saline 108 % of control | dose: 15.0 mg/kg/injection, schedule: Q01DX005 (ip), vehicle: saline 107 % of control | dose: 30.0 mg/kg/injection, schedule: Q01DX005 (ip), vehicle: saline 101 % of control

COc1cc(NS(=O)(=O)c2ccc(NC(C)c3ccc4cccnc4c3O)cc2)nc(OC)n1 (stereo not drawn)
inactive: [7] 98 % of control | [8] 99 % of control | dose: 240.0 mg/kg/injection, schedule: Q01DX005 (ip), vehicle: saline with Tween-80 96 % of control

COc1cccc2c1C(=O)c1c(O)c3c(c(O)c1C2=O)CC(O)(C(=O)CO)CC3OC1CC(NC(=O)C(F)(F)F)C(OC2CC(N)C(O)C(C)O2)C(C)O1 (stereo not drawn)
inactive: dose: 3.13 mg/kg/injection, schedule: Q04DX003 (ip), vehicle: water 109 % of control | dose: 12.5 mg/kg/injection, schedule: Q04DX003 (ip), vehicle: water 119 % of control | dose: 25.0 mg/kg/injection, schedule: Q04DX003 (ip), vehicle: water 113 % of control | dose: 50.0 mg/kg/injection, schedule: Q04DX003 (ip), vehicle: water 117 % of control

CCOC(=O)c1c(C)[nH]c(-c2ccccc2)c1NS(=O)(=O)c1ccc(N)cc1
inactive: [7] 93 % of control | [8] 94 % of control

COC1=CC(C(=O)O)C=C(OC)C1
inactive: [1] 102 % of control | [2] 104 % of control | [3] 89 % of control

N/N=C1\c2ccccc2-c2cccc(O)c21
inactive: dose: 7.5 mg/kg/injection, schedule: Q01DX005 (ip), vehicle: saline with Tween-80 101 % of control | dose: 15.0 mg/kg/injection, schedule: Q01DX005 (ip), vehicle: saline with Tween-80 97 % of control | dose: 30.0 mg/kg/injection, schedule: Q01DX005 (ip), vehicle: saline with Tween-80 93 % of control

c1cncc(-c2n[nH]c3c2CCc2ccccc2-3)c1
inactive: dose: 12.5 mg/kg/injection, schedule: Q01DX009 (ip), vehicle: other 121 % of control | dose: 37.5 mg/kg/injection, schedule: Q01DX009 (ip), vehicle: other 86 % of control | dose: 50.0 mg/kg/injection, schedule: Q01DX009 (ip), vehicle: other 121 % of control | dose: 75.0 mg/kg/injection, schedule: Q01DX009 (ip), vehicle: other 113 % of control | [9] 111 % of control | dose: 150.0 mg/kg/injection, schedule: Q01DX009 (ip), vehicle: other 100 % of control | [10] 101 % of control | dose: 300.0 mg/kg/injection, schedule: Q01DX009 (ip), vehicle: other 104 % of control

COC(=O)/C(C#N)=C/c1ccc(NC(C)=O)cc1
inactive: dose: 50.0 mg/kg/injection, schedule: Q01DX005 (ip), vehicle: Klucel (hydroxypropylcellulose) (HPC) 93 % of control | dose: 100.0 mg/kg/injection, schedule: Q01DX005 (ip), vehicle: Klucel (hydroxypropylcellulose) (HPC) 94 % of control | dose: 200.0 mg/kg/injection, schedule: Q01DX005 (ip), vehicle: Klucel (hydroxypropylcellulose) (HPC) 88 % of control

C[N+](C)(C)CCC(=O)c1ccc(Cl)cc1
inactive: [11] 109 % of control | [12] 96 % of control | dose: 12.5 mg/kg/injection, schedule: Q01DX009 (ip), vehicle: saline 103 % of control

C[n+]1ccc2cc(-c3ccccc3)c3ccccc3c2c1
inactive: dose: 1.56 mg/kg/injection, schedule: Q01DX009 (ip), vehicle: saline 109 % of control | [11] 116 % of control | [12] 109 % of control

CC1COCCOCCOCC(C)OC(=O)COCC(=O)O1 (stereo not drawn)
inactive: [4] 99 % of control | [5] 101 % of control | [6] 105 % of control

Cc1ccc(N2C(=S)N(c3cccc(Cl)c3Cl)C(=O)C(N=Nc3cccc(Cl)c3Cl)C2O)cc1 (stereo not drawn)
inactive: dose: 100.0 mg/kg/injection, schedule: Q01DX001 (ip), vehicle: Klucel (hydroxypropylcellulose) (HPC) 97 % of control | dose: 200.0 mg/kg/injection, schedule: Q01DX001 (ip), vehicle: Klucel (hydroxypropylcellulose) (HPC) 98 % of control | dose: 400.0 mg/kg/injection, schedule: Q01DX001 (ip), vehicle: Klucel (hydroxypropylcellulose) (HPC) 97 % of control

CC(=O)OCC(Cn1ccnc1[N+](=O)[O-])OC(C)=O (stereo not drawn)
inactive: dose: 12.5 mg/kg/injection, schedule: Q01DX009 (ip), vehicle: distilled water + Tween-80 100 % of control | dose: 25.0 mg/kg/injection, schedule: Q01DX009 (ip), vehicle: distilled water + Tween-80 101 % of control | dose: 50.0 mg/kg/injection, schedule: Q01DX009 (ip), vehicle: distilled water + Tween-80 100 % of control | dose: 100.0 mg/kg/injection, schedule: Q01DX009 (ip), vehicle: distilled water + Tween-80 111 % of control | dose: 200.0 mg/kg/injection, schedule: Q01DX009 (ip), vehicle: distilled water + Tween-80 108 % of control

CC(C)(O)c1ccccc1Sc1ccccc1C(C)(C)O
inactive: dose: 100.0 mg/kg/injection, schedule: Q01DX001 (ip), vehicle: saline with Tween-80 102 % of control | dose: 200.0 mg/kg/injection, schedule: Q01DX001 (ip), vehicle: saline with Tween-80 103 % of control | dose: 400.0 mg/kg/injection, schedule: Q01DX001 (ip), vehicle: saline with Tween-80 95 % of control

COc1ccc2cc1Oc1ccc(cc1)CC1c3c(c(OC)c(OC)c(OC)c3Oc3cc4c(cc3OC)CCN(C)C4C2)CCN1C (stereo not drawn)
inactive: dose: 15.0 mg/kg/injection, schedule: Q01DX009 (ip), vehicle: saline 94 % of control | dose: 30.0 mg/kg/injection, schedule: Q01DX009 (ip), vehicle: saline 94 % of control | dose: 60.0 mg/kg/injection, schedule: Q01DX009 (ip), vehicle: saline 103 % of control

COc1cc(OC)c2c(c1Cl)OCC2=O
inactive: dose: 50.0 mg/kg/injection, schedule: Q01DX009 (ip), vehicle: saline sonified 95 % of control | dose: 100.0 mg/kg/injection, schedule: Q01DX009 (ip), vehicle: saline sonified 104 % of control | dose: 200.0 mg/kg/injection, schedule: Q01DX009 (ip), vehicle: saline sonified 100 % of control

CCCCCCCCCC(=O)CCCCC
inactive: [9] 115 % of control | [10] 115 % of control | dose: 400.0 mg/kg/injection, schedule: Q01DX009 (ip), vehicle: other 90 % of control
